From patent publication US7692011B2, “8-hydroxy and 8-mercapto quinazolinones” (Prana Biotechnology Limited, priority 2002, dated 2010)
In brackets after ≈: the same amount, converted by molar mass. Read-outs that look alike come from different tables or passages of the source.

Legend:
Aβ 1-42 = molecular target: T1, Aβ 1-42 (Homo sapiens, UniProt P05067); assay: Assay 1 Fluorometric H2O2 assay: inhibition of hydrogen peroxide generation by Aβ in the presence of copper; assay type: biochemical; conditions: Aβ 1-42 with Cu-Gly, DCF fluorescence
T1 construct: The reaction solutions contained Aβ 1-42
Experimental: Assay 1. Fluorometric H2O2 Assay
A fluorometric assay was used to test the ability of a test compound to inhibit hydrogen peroxide generation by Aβ in the presence of copper based on dichlorofluoroscein diacetate (DCF; Molecular Probes, Eugene Oreg.). The DCF solution (5 mM) in 100% dimethyl sulphoxide (previously purged with argon for 1 hr at 20° C.) was deacetylated in the presence of 0.025M NaOH for 30 min and neutralised at pH 7.4 to a final concentration of 1 mM. Horseradish peroxidase ([…]) stock solution was prepared to 1 μM at pH 7.4. The reactions were carried out in PBS, pH 7.4 in a 96 well plate (total volume=250 μl/well). The reaction solutions contained Aβ 1-42 at concentrations in the range of 50 nM to 1 μM, copper-glycine chelate (Cu-Gly), was prepared by adding CuCl2 to glycine in the ratio of 1:6 and added to the Aβ in the proportion 2Cu-Gly: 1Aβ), reducing agents including dopamine (5 μM) or ascorbic acid, deacetylated DCF 100 μM, and HRP, 0.1 μM. 1-10 μM EDTA or another chelator may also be present as a control for free copper, but was not required for the assay to function. The reaction mixture was incubated at 37 C for 60 min. Catalase (4000 units/ml) and H2O2 (1-2.5 μM) standards in PBS pH 7.4 may be included as positive controls. Fluorescence was recorded using a plate reader with excitation and emission filters at […] respectively. H2O2 concentration may be established by comparing fluorescence with the H2O2 standards. Inhibition of Aβ H2O2 production was assayed by including a given concentration of test compound(s) in the test wells.

[1] = Assay 12 Turbidimetric solubility measurements; assay type: physicochemical; conditions: kinetic from dmso stock, nephelometry
Experimental: Turbidimetric Solubility Measurements
The solubility estimate was measured at both pH 2.0 and pH 6.5. This is within the pH range that can be anticipated along the proximal gastrointestinal tract in humans.
The compounds were dissolved in DMSO to appropriate concentrations and then spiked into either 0.01M HCl (approx. pH=2.0) or pH 6.5 isotonic phosphate buffer, the final DMSO concentration being 1%. Samples were then analysed via Nephelometry to determine a solubility range. [as per D. Bevan and R. S. Lloyd, Anal. Chem. 2000, 72, 1781-1787].

[2] = system: Neuronal cortical cells treated with Aβ1-42; assay: Assay 3(c) Aβ neurotoxicity and Aβ neuroprotection (MTS); assay type: cell-based, mouse; conditions: 20 uM Aβ1-42, 4 days
Experimental: Primary Cortical Neuronal Cultures
Cortical cultures were prepared as previously described (White et al., 1998). Embryonic day 14 BL6Jx129sv mouse cortices were removed, dissected free of meninges and dissociated in 0.025% (wt/vol) trypsin. Dissociated cells were plated in 48 well culture plates at a density of 2×10^6 cells/mL in MEM with 25% (vol/vol) FCS and 5% (vol/vol) HS and incubated at 37° C., 2 hrs. Media was then replaced with Neurobasal media (Invitrogen Life Technologies) and B27 supplements (Invitrogen Life Technologies). Cultures were maintained at 37° C. in 5% CO2. Prior to experimentation, the culture medium was replaced with Neurobasal media and B27 minus antioxidants (Invitrogen Life Technologies).
(c) Assay for Aβ Neurotoxicity and Aβ Neuroprotection
Neuronal cortical cells were cultured for five days as per Assay 2. On day six the neurobasal (NB) media (Invitrogen Life Technologies) and B27 supplement (Invitrogen Life Technologies) were replaced with NB media and B27 supplement (no antioxidants). On day six, test compounds were individually added to the neuronal cell cultures:
(§1) The test compounds were dissolved in 100% DMSO to a concentration of 2.5 mM (10 mM if excess compound was weighed out per vial—then diluted to 2.5 mM). 2.5 mM stock solution was serially diluted 1 in 10 to give working solutions of 250 uM, 25 uM, 2.5 uM.
Aβ was initially dissolved in 20 mM NaOH to a concentration of 1 mM and sonicated for 5 minutes. The peptide was then diluted in H2O and 10×PBS to a final concentration of 200 uM Aβ in 1×PBS. The peptide was again sonicated for 5 minutes and then spun at 14000 rpm for 5 min and transferred to a fresh tube.
as §1, with “in 10 [in NB media and B27 (no antioxidants)] to give” for “in 10 to give”, “2.5 uM. Test compounds were not added directly to cells, instead they were added to a 48 well ‘Drug Plate’ as comprised below:” for “2.5 uM.”
Preparation of “Drug Plate”:
• Well 1: 515 ul NB+B27(no antioxidant)*+24 ul 25 uM test compound+60 ul Aβ diluent** • Well 2: 515 ul NB+B27(no antioxidant)+24 ul 250 uM test compound+60 ul Aβ diluent • Well 3: 515 ul NB+B27(no antioxidant)+24 ul test compound diluent***+60 ul Aβ1-42 • Well 4: 515 ul NB+B27(no antioxidant)+24 ul 2.5 uM test compound+60 ul Aβ1-42 • Well 5: 515 ul NB+B27(no antioxidant)+24 ul 25 uM test compound+60 ul Aβ1-42 • Well 6: 515 ul NB+B27(no antioxidant)+24 ul 250 uM test compound+60 ul […] • Well 7: 515 ul NB+B27(no antioxidant)+24 ul test compound diluent+60 ul Aβ1-42 diluent • Well 8: 600 ul NB+B27(no antioxidant) • N.B. 60 ul Aβ1-42 equals 20 ul Aβ1-42 per well equals 20 uM Aβ1-42
The Drug Plate was incubated at 37° C. for 15 mins. 200 ul of each well was added in triplicate to the corresponding cell plate. The cell plate was incubated at 37 C, for 4 days. • * NB media+B27 (no antioxidants), • ** Aβ diluent 2 mM NaOH, 1×PBS • *** PBT diluent 10% DMSO in NB+B27(no antioxidant) Completion of the Assay:
On the 4th day after treating the cells the assay is completed by adding MTS to the cells.

[3] = aqueous buffer, pH 6.5 isotonic phosphate buffer, 1% DMSO, read-out: Assay 12 Solubility at pH 6.5
[4] = simulated gastric fluid, 0.01 M HCl, pH 2.0, 1% DMSO, read-out: Assay 12 Solubility in 0.01 M HCl, pH 2.0

T1 sequence (P05067 672-713 limits assumed): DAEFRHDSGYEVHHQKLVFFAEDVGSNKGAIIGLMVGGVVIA

IC50 (Aβ 1-42) [nM] | solubility [1, 3] [µg/mL] | solubility [1, 4] [µg/mL] | SMILES | Assay 3(c) Neuroprotection (% inhibition of Abeta toxicity) [2] [%]
450 | 12.5 to 25 (≈ 46.1 to 92.2 µM) | 3.1 to 6.2 (≈ 11.4 to 22.9 µM) | O=c1c2c(Cl)cc(Cl)c(O)c2ncn1C1CC1 [PBT-1061, 5,7-Dichloro-3-cyclopropyl-8-hydroxy-3H-quinazolin-4-one] | 16
620 | < 5 | < 10 | O=c1c(-c2ccc(Cl)cc2)cnc2c(O)c(I)ccn12 [PBT-1063, 3-(4-Chlorophenyl)-9-hydroxy-8-iodopyrido[1,2-a]pyrimidin-4-one] | 3
630 | > 200 | 50 to 100 (≈ 216 to 432 µM) | Oc1c(N2CCOCC2)ncc2cccnc12 [PBT-1053, 7-Morpholin-4-yl-[1,6]naphthyridin-8-ol] | 11
